pIC50: −log10 of the molar value.

Here are results for 25 compounds from US20220380338A1, “CYCLOALKYL 3-OXOPIPERAZINE CARBOXAMIDES AND CYCLOHETEROALKYL 3-OXOPIPERAZINE CARBOXAMIDES AS NAV1.8 INHIBITORS” (Merck Sharp & Dohme LLC, priority 2021, published 2022).

T1 sequence (Q9Y5Y9 whole entry): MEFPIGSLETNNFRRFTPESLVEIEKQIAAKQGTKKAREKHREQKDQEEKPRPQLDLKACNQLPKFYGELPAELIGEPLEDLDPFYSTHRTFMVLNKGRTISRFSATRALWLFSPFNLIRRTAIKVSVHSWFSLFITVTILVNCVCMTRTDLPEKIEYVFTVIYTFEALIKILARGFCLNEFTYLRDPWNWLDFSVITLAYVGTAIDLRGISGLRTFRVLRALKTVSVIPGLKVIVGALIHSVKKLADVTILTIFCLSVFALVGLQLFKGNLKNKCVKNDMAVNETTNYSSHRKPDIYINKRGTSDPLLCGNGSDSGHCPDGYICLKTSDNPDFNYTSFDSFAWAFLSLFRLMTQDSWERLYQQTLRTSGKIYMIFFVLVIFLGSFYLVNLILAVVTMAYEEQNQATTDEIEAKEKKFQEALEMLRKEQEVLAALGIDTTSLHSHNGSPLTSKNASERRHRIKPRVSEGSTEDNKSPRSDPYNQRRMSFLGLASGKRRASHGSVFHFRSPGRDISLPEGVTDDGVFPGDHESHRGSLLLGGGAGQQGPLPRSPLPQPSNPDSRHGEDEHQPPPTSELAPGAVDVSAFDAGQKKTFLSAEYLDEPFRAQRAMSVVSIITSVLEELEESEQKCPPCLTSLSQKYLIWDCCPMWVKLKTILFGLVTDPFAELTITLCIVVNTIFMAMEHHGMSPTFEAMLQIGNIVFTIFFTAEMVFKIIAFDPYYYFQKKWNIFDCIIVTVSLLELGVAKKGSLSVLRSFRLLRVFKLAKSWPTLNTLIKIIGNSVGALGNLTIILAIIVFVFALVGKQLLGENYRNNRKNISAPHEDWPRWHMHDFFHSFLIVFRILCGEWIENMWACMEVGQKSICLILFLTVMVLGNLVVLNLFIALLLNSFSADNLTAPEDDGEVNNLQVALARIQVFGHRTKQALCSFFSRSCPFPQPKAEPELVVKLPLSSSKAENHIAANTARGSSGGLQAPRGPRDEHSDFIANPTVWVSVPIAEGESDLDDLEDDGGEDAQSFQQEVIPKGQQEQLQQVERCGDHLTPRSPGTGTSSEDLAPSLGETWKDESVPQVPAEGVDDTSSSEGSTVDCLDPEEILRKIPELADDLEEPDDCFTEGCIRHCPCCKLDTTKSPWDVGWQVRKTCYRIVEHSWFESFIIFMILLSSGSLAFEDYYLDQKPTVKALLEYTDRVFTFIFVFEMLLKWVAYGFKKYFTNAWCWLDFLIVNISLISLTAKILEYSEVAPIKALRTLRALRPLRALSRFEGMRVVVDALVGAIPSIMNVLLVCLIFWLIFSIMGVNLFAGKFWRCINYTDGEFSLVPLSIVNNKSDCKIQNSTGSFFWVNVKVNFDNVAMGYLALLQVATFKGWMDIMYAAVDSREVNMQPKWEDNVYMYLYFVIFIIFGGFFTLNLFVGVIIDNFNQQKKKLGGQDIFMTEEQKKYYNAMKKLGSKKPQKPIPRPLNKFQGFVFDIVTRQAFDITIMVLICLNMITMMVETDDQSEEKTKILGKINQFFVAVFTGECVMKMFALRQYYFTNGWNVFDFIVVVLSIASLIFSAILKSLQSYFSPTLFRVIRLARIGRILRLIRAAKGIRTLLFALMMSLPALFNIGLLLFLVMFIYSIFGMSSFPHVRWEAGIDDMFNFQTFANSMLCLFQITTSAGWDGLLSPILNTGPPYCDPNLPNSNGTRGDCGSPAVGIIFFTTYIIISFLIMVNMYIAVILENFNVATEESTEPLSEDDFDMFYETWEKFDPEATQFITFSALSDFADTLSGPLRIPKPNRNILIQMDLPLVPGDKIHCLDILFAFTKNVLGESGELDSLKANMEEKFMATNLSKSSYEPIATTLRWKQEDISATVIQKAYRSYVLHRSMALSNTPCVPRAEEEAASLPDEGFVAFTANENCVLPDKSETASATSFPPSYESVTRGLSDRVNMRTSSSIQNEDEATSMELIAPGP

The assay addresses T1, human NaV1.8 (Homo sapiens, UniProt Q9Y5Y9).
T1 construct: expressed in transfected cells
Briefly: Nav1.8 Qube® Assay (automated 384-well patch-clamp, inhibition of sodium current). As to conditions: human NaV1.8 channels stably expressed in HEK 293 cells, room temperature. The class given is cell-based. The procedure:
Compounds were tested on human NaV1.8 and NaV1.5 channels stably expressed in human embryo kidney (HEK) 293 cells. Sodium current measurements on Qube® were conducted as follows: automated 384-well patch-clamp assays on the Qube® platform (Sophion Biosciences) were used to measure the inhibition of sodium flow through human NaV1.8 and NaV1.5 channels. Whole-cell voltage-clamp recordings were performed in QChips® (Sophion Biosciences) at room temperature. NaV1.8 current measurements on Qube® were obtained as follows: NaV1.8 currents were elicited with a 10 second 1 Hertz (Hz) pulse train from a holding potential of −90 millivolts (mV), delivered to the cells once per minute in the control condition (DMSO only) and after compound addition. The 1 hertz pulse train stimulation consisted of ten test pulses to 10 millivolt (mV) for 20 milliseconds (ms), each of which was followed by a 980 millisecond repolarization to −67 millivolts. At the end of the 10 second pulse train stimulation, a 5 second hyperpolarization step to −100 millivolt (mV) was used to recover NaV1.8 from fast inactivation. The peak currents elicited by the 1st and 10th test pulses were used to determine IC50 values for resting inhibition and inactivated state inhibition. NaV1.5 current measurements on Qube® were obtained as follows: NaV1.5 currents were elicited with a 20 second 3 Hertz pulse train in the control condition (DMSO only) and after compound addition. The pulse train consisted of sixty 20 millisecond test pulses to 0 millivolt from a holding potential of −80 millivolt (mV). The average peak currents elicited by the last 3 test pulses were used to determine IC50 values for NaV1.5 inhibition.
The following buffers were used for the Qube® recordings: External buffer for NaV1.8 Qube® recording: 150 NaCl, 2 CaCl2, 5 KCl, 1 Mg Cl2, 10 HEPES, 12 Dextrose; External buffer for Qube® NaV1.5 recording: 120 N-Methyl-D-Glucamine, 40 NaCl, 1 KCl, 2.7 CaCl2, 5 HEPES, 0.5 MgCl2; and Internal buffer for Qube® recording: 120 CsF, 30 CsCl, 10 EGTA, 5 HEPES, 5 NaF, 2 MgCl2.
For all Qube® experiments offline analysis was used to determine percent inhibition as a function of drug concentration. IC50 values were determined by fitting to the Hill equation.
Regarding `O=C1NCCN(C(=O)N[C@H](c2ccc(F)c(Cl)c2F)[C@H]2C[C@H](C(F)(F)F)C2)C1C1CC1` (single isomer, unassigned) [Example 27A, (R or S)—N—((S)-(3-chloro-2,4-difluorophenyl)(trans-3-(trifluoromethyl)cyclobutyl)methyl)-2-cyclopropyl-3-oxopiperazine-1-carboxamide], the pIC50 (in general, the negative decadic logarithm of the IC50, by convention in mol/L) is 9.10.

For `CC(N1CCC(C(NC(=O)N2CCNC(=O)[C@H]2C)c2ccc(F)c(Cl)c2)CC1)C(F)(F)F` (single isomer, unassigned) [Example 18A], the negative-log IC50 (pIC50) is 8.39.

`Cc1cc(C(NC(=O)N2CCNC(=O)[C@H]2C)C2CCC(C(F)(F)F)CC2)ccc1F` (single isomer, unassigned) [Example 36D] had a pIC50 of 8.40.

The compound `C[C@@H]1C(=O)NCCN1C(=O)NC(c1ccc(F)c(Cl)c1F)C1CC2(C1)CC(F)(F)C2` (single isomer, unassigned) [Example 23, (2R)-N-((R or S)-(3-chloro-2,4-difluoro-phenyl)(6,6-difluoro-spiro[3.3]heptan-2-yl)methyl)-2-methyl-3-oxopiperazine-1-carboxamide] gave a pIC50 of 8.94.

In the case of `C[C@@H]1C(=O)NCCN1C(=O)NC(c1ccc(F)c(Cl)c1F)C1CC(F)(F)C1` (single isomer, unassigned) [Example 24A, (2R)-N-((R or S)-(3-chloro-2,4-difluoro-phenyl)(3,3-difluoro-cyclobutyl)methyl)-2-methyl-3-oxopiperazine-1-carboxamide], the pIC50 is 5.58. Compared with the last compound, the pIC50 is 3.36 log units lower.

For the compound `Cc1cc(C(NC(=O)N2CCNC(=O)[C@H]2C)C2CCC(C(F)(F)F)CC2)ccc1F` (single isomer, unassigned) [Example 36B], the pIC50 was 7.13.

As to `C[C@@H]1C(=O)NCCN1C(=O)NC(C)(c1ccc(F)c(Cl)c1)C1CC(C(F)(F)F)C1` (single isomer, unassigned) [Example 48D, (2R)—N—((S or R)-1-(3-chloro-4-fluorophenyl)-1-(trans-3-(trifluoromethyl)cyclobutyl)ethyl)-2-methyl-3-oxopiperazine-1-carboxamide], the pIC50 is 6.29.

With `C[C@@H]1C(=O)NCCN1C(=O)NC(c1ccc(F)c(Cl)c1)[C@@H]1C[C@@H]2[C@H](C1)C2(F)F` (single isomer, unassigned) [Example 7B, (2R)-N-((S or R)-(3-chloro-4-fluoro-phenyl)((1R,3s,5S)-6,6-difluoro-bicyclo[3.1.0]hexan-3-yl)methyl)-2-methyl-3-oxo-piperazine-1-carboxamide], the negative logarithm of the IC50 (pIC50) was 7.93.

Regarding `C[C@@H]1C(=O)NCCN1C(=O)NC(c1ccc(F)c(Cl)c1F)C1CCC(F)(F)C1` (single isomer, unassigned) [Example 42A, (2R)-N-((R or S)-(3-choro-2,4-difluoro-phenyl)((R or S)-3,3-difluorocyclopentyl)-methyl)-2-methyl-3-oxopiperazine-1-carboxamide], the negative-log IC50 (pIC50) is 6.49.

With `C[C@@H]1C(=O)NCCN1C(=O)NC(c1ccc(Cl)c(C(F)F)c1)C1CCC(C(F)(F)F)CC1` (single isomer, unassigned) [Example 37D, (2R)-N-((S or R)-(4-chloro-3-(difluoro-methyl)phenyl)(trans-4-(trifluoromethyl)cyclohexyl)methyl)-2-methyl-3-oxopiperazine-1-carboxamide], the negative-log IC50 (pIC50) is 8.70.

With `C[C@@H]1C(=O)NCCN1C(=O)NC(c1ccc(F)c(Cl)c1)[C@@H]1C[C@@H]2[C@H](C1)C2(F)F` (single isomer, unassigned) [Example 7A, (2R)-N-((R or S)-(3-chloro-4-fluoro-phenyl)((1R,3s,5S)-6,6-difluoro-bicyclo[3.1.0]hexan-3-yl)methyl)-2-methyl-3-oxo-piperazine-1-carboxamide], the pIC50 was 6.95.

`C[C@@H]1C(=O)NCCN1C(=O)NC(c1ccc(F)c(Cl)c1)C1CC(OC(F)F)C1` (single isomer, unassigned) [Example 38A, (2R)-N-((R or S)-(3-chloro-4-fluoro-phenyl)-(trans-3-(difluoro-methoxy)cyclobutyl)-methyl)-2-methyl-3-oxopiperazine-1-carboxamide] showed a pIC50 of 6.84. The pIC50 values of the last two compounds are within 0.2 log units of each other.

In turn, `C[C@@H]1C(=O)NCCN1C(=O)NC(c1ccc(F)c(Cl)c1)C1CC2CCC(C1)C2(F)F` (single isomer, unassigned) [Example 3B, (2R)-N-((S or R)-(3-chloro-4-fluoro-phenyl)(8,8-difluoro-bicyclo[3.2.1]octan-3-yl)methyl)-2-methyl-3-oxo-piperazine-1-carboxamide] gave a negative-log IC50 (pIC50) of 6.83.

In turn, `C[C@@H]1C(=O)NCCN1C(=O)NC(c1ccc(Cl)cc1)C1CCN(CC(F)(F)F)CC1` (single isomer, unassigned) [Example 16A, (2R)-N-((R or S)-(4-chlorophenyl)(1-(2,2,2-trifluoroethyl)piperidin-4-yl)methyl)-2-methyl-3-oxopiperazine-1-carboxamide] had a pIC50 of 6.44.

As to `C[C@@H]1C(=O)NCCN1C(=O)N[C@H](c1ccc(F)c(Cl)c1)C1CCC(C(F)(F)F)CC1` (single isomer, unassigned) [Example 5B, (2R)-N-((S or R)-(3-chloro-4-fluoro-phenyl)(trans-4-(tri-fluoromethyl)cyclo-hexyl)methyl)-2-methyl-3-oxo-piperazine-1-carboxamide], the negative-log IC50 (pIC50) is 8.38. This pIC50 lies 1.94 log units higher than the previous one.

In turn, `C[C@@H]1C(=O)NCCN1C(=O)NC(c1ccc(F)c(Cl)c1F)C1CC12CC2` (single isomer, unassigned) [Example 41D, (2R)-N-((S or R)-(3-chloro-2,4-difluoro-phenyl)((S or R)-spiro[2.2]pentan-1-yl)methyl)-2-methyl-3-oxopiperazine-1-carboxamide] showed a pIC50 of 5.97.

The compound `C[C@@H]1C(=O)NCCN1C(=O)NC(c1ccc(F)c(Cl)c1F)C1COc2ccccc2C1` (single isomer, unassigned) [Example 62B, (R)—N—((R or S)-(3-chloro-2,4-difluorophenyl)((S or R)-chroman-3-yl)methyl)-2-methyl-3-oxopiperazine-1-carboxamide] showed a negative logarithm of the IC50 (pIC50) of 6.45.

In turn, `C[C@@H]1C(=O)NCCN1C(=O)NC(c1ccc(F)c(Cl)c1F)C1CCC(F)(F)C1` (single isomer, unassigned) [Example 42C, (2R)-N-((S or R)-(3-chloro-2,4-difluoro-phenyl)((R or S)-(3,3-difluorocyclopentyl)-methyl)-2-methyl-3-oxopiperazine-1-carboxamide] showed a pIC50 of 7.62. Against the preceding compound, the pIC50 is 1.17 log units higher.

Consider `C[C@@H]1C(=O)NCCN1C(=O)NC(c1ccc(F)c(Cl)c1F)C1CCC(C(F)(F)F)C1` (single isomer, unassigned) [Example 58D, (2R)—N—((R or S)-(3-chloro-2,4-difluorophenyl)(trans-3-(trifluoromethyl)cyclopentyl)methyl)-2-methyl-3-oxopiperazine-1-carboxamide], for which the negative logarithm of the IC50 (pIC50) is 8.22. This pIC50 is 0.60 log units higher than that of the compound before.

With `Cc1cc(C(NC(=O)N2CCNC(=O)[C@H]2C)C2CCC(C(F)(F)F)CC2)ccc1F` (single isomer, unassigned) [Example 36C], the negative logarithm of the IC50 (pIC50) was 7.24.

Turning to `C[C@@H]1C(=O)NCCN1C(=O)NC(c1ccc(F)c(Cl)c1F)C1CC(OC(F)F)C1` (single isomer, unassigned) [Example 39A, (2R)-N-((R or S)-(3-chloro-2,4-difluoro-phenyl)(trans-3-(difluoromethoxy)-cyclobutyl)methyl)-2-methyl-3-oxopiperazine-1-carboxamide], the negative logarithm of the IC50 (pIC50) was 6.09.

Turning to `C[C@@H]1C(=O)NCCN1C(=O)NC(c1ccc(F)c(Cl)c1)C1CC(OC(F)F)C1` (single isomer, unassigned) [Example 38B, (2R)-N-((R or S)-(3-chloro-4-fluorophenyl) (cis-3-(difluoromethoxy)cyclobutyl)methyl)-2-methyl-3-oxopiperazine-1-carboxamide], the pIC50 was 6.80.

Compound `C[C@@H]1C(=O)NCCN1C(=O)NC(c1ccc(F)c(Cl)c1)C1CCC(F)(F)CC1` (single isomer, unassigned) [Example 14A, (2R)-N-((R or S)-(3-chloro-4-fluoro-phenyl)(4,4-difluoro-cyclohexyl)methyl)-2-methyl-3-oxo-piperazine-1-carboxamide] had a negative-log IC50 (pIC50) of 7.73.

The compound `C[C@@H]1C(=O)NCCN1C(=O)NC(c1ccc(F)c(Cl)c1F)C1CC(C(F)(F)F)C1` (single isomer, unassigned) [Example 20A] showed a pIC50 of 8.86.

On to `C[C@@H]1C(=O)NCCN1C(=O)NC(c1csc(C(F)(F)F)n1)[C@H]1CC[C@H](C(F)(F)F)CC1` (single isomer, unassigned) [Example 55B], for which the negative-log IC50 (pIC50) was 7.58.
